According to patent publication US11690845B2, “Methods of administering elagolix” (priority 2020, dated 2023):
Blank lines part the entries; values can stand above or below the compound they belong to.

How the values were obtained:
clinical = details: human, in vivo
Protocol: Subjects: Twenty adult premenopausal female subjects were enrolled in the study.
Beginning on Day 3, subjects received elagolix 300 mg BID under fasting conditions every day until Day 10. […] Doses of elagolix were separated by approximately 12 hours.
Testing was performed for CYP2C19 variants including the *2 (rs4244285), *3 (rs4986893), *4 (rs28399504), *8 (rs41291556), *10 (rs6413438) and *12 (rs55640102) alleles.
Safety was evaluated during confinement and at each study visit through adverse event monitoring, vital signs measurements, physical examinations, and routine laboratory tests.

[1] = Drug interactions: effects of ORIAHNN on plasma exposure of other drugs; details: co-administration of ORIAHNN
[2] = Drug interaction studies: pharmacokinetics of co-administered drug in the presence of elagolix; type: in vivo, human; details: for changes in exposures when co-administered with elagolix: elagolix 300 mg twice daily
Protocol: Drug interaction studies were performed with elagolix and other drugs likely to be co-administered and with drugs commonly used as probes for pharmacokinetic interactions. Tables 7 and 8 summarize the pharmacokinetic effects when elagolix was co-administered with these drugs.

[3] = Drug-drug interaction study: effect of elagolix on pharmacokinetics of CYP2B6 substrate bupropion and OH-bupropion; safety; details: for Tmax / Metabolite to Parent AUCinf Ratio / Metabolite to Parent AUCt Ratio / Metabolite to Parent Cmax Ratio: median; for Tmax: N = 24; for t1/2: harmonic mean; for AUCinf / AUCt / Cmax: mean
Protocol: Subjects: Twenty four (24) adult premenopausal women in generally good health participated in this study.
Elagolix 300 mg BID (as 300 mg immediate release tablets) was administered in the morning and evening on days 1 through 14 in period 2. […] No food was consumed for 2 hours prior to the evening doses of elagolix continuing through 2 hours after. The doses of elagolix were separated by approximately 12 hours.
Individual PK parameters (peak concentration [Cmax] and area under the concentration-time curve [AUC]) were estimated using noncompartmental methods.
Central value ratios (90% confidence intervals) for Cmax, AUC, and metabolite to parent ratios (MPRs) (day 11, period 2 vs. day 1, period 1) were calculated to assess the DDIs. Safety was evaluated through assessment of adverse events, vital signs, electrocardiogram, and clinical laboratory tests.
Adverse events (AEs) were monitored throughout the DDI study. Additional safety evaluations included monitoring of physical examinations, vital signs, electrocardiogram variables, and clinical laboratory values were assessed

[4] = Rosuvastatin 20 mg once daily, elagolix 300 mg twice daily ×7 days, N 10
[5] = Bupropion + Elagolix (Day 11, Period 2)
[6] = Bupropion Alone (Day 1, Period 1)
[7] = single 150 mg bupropion, elagolix 300 mg twice daily for 10 preceding days, interval in brackets

Compound: COc1ccc2[nH]c([S+]([O-])Cc3ncc(C)c(OC)c3C)nc2c1 (stereo not drawn) [omeprazole, 5-methoxy-2-[[(4-methoxy3,5-dimethyl-2-pyridinyl)methyl]sulfinyl]-1H-benzimidazole, reference compound]
decrease in AUCinf with elagolix (clinical; female): 40%
increase in AUCinf with elagolix (clinical; female, 300 mg): 1.8 fold
increase in Cmax with elagolix (clinical; female, 300 mg): 1.9 fold
increase in exposure (AUCinf) with elagolix (clinical; female, im): 2-2.5 fold
Cmax and AUCinf values upon co-administration with elagolix (direction of change) (clinical): increased
Effect on Plasma Exposure of Concomitant Drug (AUC) [1]: ↑ omeprazole

Compound: CC(NC(C)(C)C)C(=O)c1cccc(Cl)c1.Cl (racemic) [bupropion, (±)-1-(3-chlorophenyl)-2-[(1,1-dimethylethyl)amino]-1-propanone hydrochloride]
changes in exposures when co-administered with elagolix [2]: No clinically significant changes

Compound: COc1ccc2nc(S(=O)(=O)Cc3ncc(C)c(OC)c3C)[nH]c2c1 [omeprazole sulfone]
M:P AUCinf Ratio, Relative Bioavailability Point Estimate (clinical; female): 1.246
M:P AUCt Ratio, Relative Bioavailability Point Estimate (clinical; female): 1.497
increase in exposures with elagolix (clinical; female): ~3 fold
Cmax (clinical; female, 40 mg): 0.162 µg/mL
M:P AUCinf Ratio, Central Value Reference (clinical; female, 40 mg): 0.825
M:P AUCt Ratio, Central Value Reference (clinical; female, 40 mg): 0.679
RAUCinf (metabolite-to-parent AUCinf ratio) (clinical; female, 40 mg): 0.85
RAUCt (metabolite-to-parent AUCt ratio) (clinical; female, 40 mg): 0.76
increase in AUCinf with elagolix (clinical; female, 300 mg): 2.5 fold
increase in Cmax with elagolix (clinical; female, 300 mg): 2.7 fold
increase in M:P AUCinf ratio with elagolix (clinical; female, 300 mg): 25%
Cmax and AUCinf values upon co-administration with elagolix (direction of change) (clinical): increased

Compound: C[C@H]1NC(C)(C)CO[C@]1(O)c1cccc(Cl)c1 [hydroxybupropion]
Tmax ([3]; Bupropion + Elagolix (Day 11, Period 2), elagolix 300 mg BID): 6.0 h
t1/2 [3, 5]: 20.5 h
AUCinf [3, 5]: 17.6 µg·h/mL
AUCt [3, 5]: 17 µg·h/mL
Cmax [3, 5]: 0.429 µg/mL
Metabolite to Parent AUCinf Ratio [3, 5]: 15.9
Metabolite to Parent AUCt Ratio [3, 5]: 15.9
Metabolite to Parent Cmax Ratio [3, 5]: 3.92
Tmax ([3]; Bupropion Alone (Day 1, Period 1), 150 mg single dose): 10.0 h
t1/2 [3, 6]: 24.7 h
AUCinf [3, 6]: 16.7 µg·h/mL
AUCt [3, 6]: 15.7 µg·h/mL
Cmax [3, 6]: 0.323 µg/mL
Metabolite to Parent AUCinf Ratio [3, 6]: 15.7
Metabolite to Parent AUCt Ratio [3, 6]: 15.4
Metabolite to Parent Cmax Ratio [3, 6]: 3.61
increase in Cmax upon co-administration with elagolix ([3]; elagolix 300 mg BID): 32%
changes in OH-bupropion/bupropion ratios of Cmax and AUC upon co-administration with elagolix ([3]; elagolix 300 mg BID, minimal changes): ≤ 120%
AUCinf ratio, co-administration of bupropion with elagolix vs bupropion alone (A/B) [3, 7]: about 1.063
Cmax ratio, co-administration of bupropion with elagolix vs bupropion alone (A/B) [3, 7]: about 1.317

Compound: COc1ccc2nc([S+]([O-])Cc3ncc(CO)c(OC)c3C)[nH]c2c1 (stereo not drawn) [5-hydroxyomeprazole]
decrease in AUCinf with elagolix (clinical): 20-30%
AUCinf (clinical; 40 mg): 1.88 µg·h/mL
AUCt (clinical; 40 mg): 1.82 µg·h/mL
Cmax (clinical; 40 mg): 0.491 µg/mL
t1/2 (clinical; 40 mg): 1.57 h
decrease in AUCinf with elagolix (clinical; 300 mg): ~25%
decrease in Cmax with elagolix (clinical; 300 mg): approximately 30%

Compound: CN[C@H]1CC[C@@H](c2ccc(Cl)c(Cl)c2)c2ccccc21 [sertraline]
changes in exposures when co-administered with elagolix [2]: No clinically significant changes

The remaining lines, values ahead:

Ratio (90% CI) AUC, co-administration with elagolix vs medication alone [2, 4]: 0.60
Ratio (90% CI) Cmax, co-administration with elagolix vs medication alone [2, 4]: 0.99
Effect on Plasma Exposure of Concomitant Drug (AUC) [1]: ↓ rosuvastatin
Compound: CC(C)c1nc(N(C)S(C)(=O)=O)nc(-c2ccc(F)cc2)c1/C=C/[C@@H](O)C[C@@H](O)CC(=O)O [rosuvastatin]

changes in exposures when co-administered with elagolix [2]: No clinically significant changes
Compound: OC(Cn1cncn1)(Cn1cncn1)c1ccc(F)cc1F [fluconazole]
